From US20220233661A1, “METHOD OF DETERMINING ELIGIBILITY OF CANCER PATIENT FOR PEPTIDE VACCINE THERAPY” (priority 2019, published 2022)

Columns and labels:
[1] = test system: anti-peptide IgG in plasma; assay: Test Example 4: peptide-specific IgG titer pre and post vaccination, bead-based multiplexed Luminex assay; assay type: in vivo, human; conditions: for Pre-vaccination IgG Negative (number of patients) / Pre-vaccination IgG Positive (number of patients): cut off 10 FIU; for Post vaccination IgG: number of (positive) patients among vaccinated: positive IgG response; for Pre-vaccination IgG Negative patients: number of 2,588 patients below 10 FIU; for Pre-vaccination IgG Positive patients: number of 2,588 patients with ≥10 FIU; for Post vaccination IgG: (positive) patients: number of vaccinated patients with positive IgG response; for Correlation between immune responses and OS: Negative (mOS): patients with negative post-vaccination IgG response to the peptide; for Correlation between immune responses and OS: Positive (mOS): patients with positive post-vaccination IgG response to the peptide
In short: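 Plasma taken before vaccination and at the end of the first and second cycles; incubated with peptide-coupled beads 2 hours at 25° C., then biotinylated anti-human IgG (gamma chain-specific) and streptavidin-PE. Bead FIU read by Luminex; positivity cutoff 10 FIU in 100-fold diluted samples.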

[2] = test system: cancer patients; assay: Test Example 4: correlation between vaccination with individual peptides (or peptide sets) and OS, Cox proportional hazards regression; assay type: in vivo, human; conditions: for HR: Cox proportional hazards regression, OS; for Correlation between immune responses and OS: Negative (mOS) / Correlation between immune responses and OS: Positive (mOS): Table 20, <64% neutrophil and ≥26% lymphocyte; for Correlation between immune responses and OS: Negative (mOS): vaccinated patients with negative IgG response; for Correlation between immune responses and OS: Positive (mOS): vaccinated patients with positive IgG response
In short: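 Univariate and multivariate Cox proportional hazards regression of each of 31 vaccine peptides against OS (enrollment to death or last contact), giving HR with 95% CI; also run separately in 2,085 advanced (stage IV+recurrence) and 503 stage I-III patients. Two-sided p<0.05 considered significant.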

[3] = Table 20, patients showing both <64% neutrophil and ≥26% lymphocyte
[4] = patients showing detectable levels
[5] = patients showing positive responses
[6] = Table 18, all 2,588 cases, vaccinated vs non-vaccinated
[7] = Table 18, all 2,588 cases, median OS of patients under PPV containing the peptide
[8] = Table 18, all 2,588 cases, median OS of patients under PPV not containing the peptide
[9] = Table 19, 2,085 advanced cancer patients (stage IV+recurrence)
[10] = Table 19, 2,085 advanced cancer patients (stage IV+recurrence), PPV containing the peptide
[11] = Table 19, 2,085 advanced cancer patients (stage IV+recurrence), PPV not containing the peptide
[12] = Table 21, patients showing both <64% neutrophil and ≥26% lymphocyte
[13] = Table 21, patients showing both <64% neutrophil and ≥26% lymphocyte, PPV containing the peptide
[14] = Table 21, patients showing both <64% neutrophil and ≥26% lymphocyte, PPV not containing the peptide

Row | Sequence | Post vaccination IgG Median (FIU) [1, 3] | Pre-vaccination IgG Median (FIU) [1, 3] | Pre-vaccination IgG Negative (number of patients) [1, 3] | Pre-vaccination IgG Positive (number of patients) [1, 3] | Post vaccination IgG: number of (positive) patients among vaccinated [1, 3] | Pre-vaccination IgG Negative patients [1] | Pre-vaccination IgG Positive patients [1] | Post vaccination IgG: (positive) patients [1] | Pre-vaccination IgG Median (FIU) [1, 4] | Post vaccination IgG Median (FIU) [1, 5] | Correlation between immune responses and OS: Negative (mOS) [1] | Correlation between immune responses and OS: Positive (mOS) [1] | HR [2, 6] | Vaccinate cases (mOS) [2, 7] | Non-vaccinate cases (mOS) [2, 8] | HR [2, 9] | Vaccinate cases (mOS) [2, 10] | Non-vaccinate cases (mOS) [2, 11] | Correlation between immune responses and OS: Negative (mOS) [2] | Correlation between immune responses and OS: Positive (mOS) [2] | also measured
1 | GIHKQKEKSR (listed as Homo sapiens) [PAP-248] | 1,981 FIU | 38 FIU | 543 | 523 | 64(31) | 1,302 | 1,286 | 147(62) | 37 FIU | 2,136 FIU | 9.9 months | 21.1 months | 1.0 | 147(11.4) M | 1,067(11.1) M | 0.8 | 124(10.1) M | 845(9.9) M | 13 months | 21.3 months | median OS of patients with the peptide vs patients without it ([2]; 1,066 patients with <64% neutrophil and ≥26% lymphocyte): shorter; HR [2, 12]: 1.1; Vaccinate cases (mOS) [2, 13]: 64(15.5) M; Non-vaccinate cases (mOS) [2, 14]: 443(17.6) M
2 | HYRKWIKDTI (listed as Homo sapiens) [PSA-248] | 18,191 FIU | 47 FIU | 231 | 835 | 107(81) | 553 | 2,035 | 283(200) | 48 FIU | 13,165 FIU | 7.0 months | 20.2 months | 0.9 | 283(13.8) M | 1,267(11.6) M | 0.9 | 230(13.0) M | 1016(10.2) M | 9.6 months | 27.4 months | HR [2, 12]: 0.9; Vaccinate cases (mOS) [2, 13]: 107(20.4) M; Non-vaccinate cases (mOS) [2, 14]: 518(17.9) M
3 | NYSVRYRPGL (listed as Homo sapiens) [MRP3-1293] | 6,491 FIU | 27 FIU | 423 | 643 | 132(83) | 1,030 | 1,558 | 324(157) | 27 FIU | 6,003 FIU | 8.6 months | 20.6 months | 1.1 | 324(11.9) M | 1,226(12.1) M | 1.0 | 253(10.5) M | 993(10.4) M | 12.6 months | 24.3 months | HR [2, 12]: 1.0; Vaccinate cases (mOS) [2, 13]: 132(17.5) M; Non-vaccinate cases (mOS) [2, 14]: 493(18.4) M
4 | DLLSHAFFA (listed as Homo sapiens) [MAP-432] | 947 FIU | 52 FIU | 549 | 517 | 133(45) | 1,280 | 1,308 | 375(97) | 51 FIU | 757 FIU | 12.0 months | 23.8 months | 1.0 | 375(11.1) M | 1,087(11.9) M | 1.1 | 296(9.7) M | 892(10.8) M | 15.5 months | 29.4 months | HR [2, 12]: 1.1; Vaccinate cases (mOS) [2, 13]: 133(16.1) M; Non-vaccinate cases (mOS) [2, 14]: 460(18.5) M
5 | KLKHYGPGWV (listed as Homo sapiens) [CypB-129] | 3,143 FIU | 28 FIU | 290 | 776 | 196(110) | 700 | 1,888 | 483(222) | 31 FIU | 2,483 FIU | 9.0 months | 23.8 months | 0.9 | 483(12.3) M | 1458(11.2) M | 0.9 | 393(10.9) M | 1183(10.1) M | 13.2 months | 29.4 months | HR [2, 12]: 0.9; Vaccinate cases (mOS) [2, 13]: 196(19.3) M; Non-vaccinate cases (mOS) [2, 14]: 612(16.9) M
6 | LLQAEAPRL (listed as Homo sapiens) [SART3-302] | 17,719 FIU | 84 FIU | 375 | 691 | 173(138) | 948 | 1,640 | 408(271) | 84 FIU | 14,958 FIU | 9.1 months | 18.2 months | 0.9 | 408(12.7) M | 642(10.5) M | 0.9 | 328(11.4) M | 534(9.8) M | 10.8 months | 21.2 months | HR [2, 12]: 0.9; Vaccinate cases (mOS) [2, 13]: 173(18.1) M; Non-vaccinate cases (mOS) [2, 14]: 261(16.3) M
7 | WLEYYNLER (listed as Homo sapiens) [SART3-511] | 1,095 FIU | 38 FIU | 264 | 802 | 179(82) | 621 | 1,967 | 439(145) | 41 FIU | 921 FIU | 10.8 months | 22.6 months | 1.0 | 439(11.0) M | 775(11.2) M | 1.0 | 346(9.9) M | 623(10.0) M | 17.1 months | 29.2 months | HR [2, 12]: 0.9; Vaccinate cases (mOS) [2, 13]: 179(19.0) M; Non-vaccinate cases (mOS) [2, 14]: 328(17.5) M
8 | TYSVSFDSL (listed as Homo sapiens) [PSMA-624] | 10,984 FIU | 26 FIU | 680 | 386 | 37(26) | 1,638 | 950 | 101(50) | 24 FIU | 7,772 FIU | 5.5 months | 21.7 months | 1.0 | 101(11.7) M | 1,449(12.0) M | 1.1 | 78(7.9) M | 1168(10.7) M | 21.2 months | 24.4 months | HR [2, 12]: 0.9; Vaccinate cases (mOS) [2, 13]: 37(21.2) M; Non-vaccinate cases (mOS) [2, 14]: 588(18.0) M
